Source: patent US5840917A, “Phosphorylamides, their preparation and use” (Takeda Chemical Industries, Ltd., priority 1995, dated 1998)
Read-outs that look alike come from different tables or passages of the source.

What was measured:
[1] = test system: Helicobacter pylori (CPY-433 F4); test: Bacteria eradication effect of urease inhibitor (in vivo) in infected mice; settings: male ICR mice, 10 mg/kg p.o. twice daily, lansoprazole 30 mg/kg s.c. once daily before first dose
[2] = target: T1, Helicobacter pylori-derived urease (Helicobacter pylori, UniProt P69996); test: Screening of urease inhibitors (ammonia yield from urea); type: biochemical
T1 construct: an urease solution prepared from Helicobacter pylori; endogenous in cells
T1 sequence (P69996 whole entry, looked up): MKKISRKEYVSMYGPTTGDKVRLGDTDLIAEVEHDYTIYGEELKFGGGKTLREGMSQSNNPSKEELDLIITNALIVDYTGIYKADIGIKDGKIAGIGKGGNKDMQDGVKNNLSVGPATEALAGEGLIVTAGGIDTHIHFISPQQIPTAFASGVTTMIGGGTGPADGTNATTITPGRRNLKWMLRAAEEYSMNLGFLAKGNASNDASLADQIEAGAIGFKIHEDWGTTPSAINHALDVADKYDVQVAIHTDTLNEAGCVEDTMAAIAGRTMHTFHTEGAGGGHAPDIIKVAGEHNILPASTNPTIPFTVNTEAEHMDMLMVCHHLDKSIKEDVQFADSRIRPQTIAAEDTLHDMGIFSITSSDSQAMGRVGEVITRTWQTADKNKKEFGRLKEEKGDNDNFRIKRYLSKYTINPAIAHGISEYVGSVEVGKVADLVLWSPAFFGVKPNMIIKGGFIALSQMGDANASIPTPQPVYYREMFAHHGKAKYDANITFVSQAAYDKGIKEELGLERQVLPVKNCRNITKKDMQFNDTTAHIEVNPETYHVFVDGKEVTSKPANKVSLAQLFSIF
Description: Screening of Urease Inhibitors
One hundred (100) μl of 100 mM Bis-Tris buffer (pH 6.5) and 60 μl of an urease solution prepared from Helicobacter pylori were added to 20 μl of a test drug dissolved in 0.1% dimethylformamide solution. The mixture was incubated at room temperature for 30 minutes, and then 20 μl of 100 mM urea was added. The mixture was kept at room temperature for 10 minutes, and then the yielded ammonia in the incubation mixture was measured using a commercial test kit (Ammonia Test Wako®; Wako Pure Chemical). The percent inhibition against the yield of ammonia in the solvent addition group was calculated to obtain the IC50 value.

[3] = 4 days for therapy, control 0/5

Compound | IC50 [2] [nM] | also measured
NP(N)(=O)NC(=O)c1coc(Br)c1 [Example 41, N-(Diaminophosphinyl)-5-bromo-3-furancarboxamide] | 7.7 | Eradication Rate ([1]; 2 days for therapy): 1/5
Cc1cc(C(=O)NP(N)(N)=O)c(C)s1 [Example 32, N-(Diaminophosphinyl)-2,5-dimethyl-3-thiophenecarboxamide] | 8.7 | Eradication Rate ([1]; 2 days for therapy): 2/5
N#Cc1ccsc1C(=O)NP(N)(N)=O [Example 23, N-(Diaminophosphinyl)-3-cyano-2-thiophenecarboxamide] | 2.2 | Eradication Rate ([1]; 2 days for therapy): 1/5
NP(N)(=O)NC(=O)c1ccc([N+](=O)[O-])o1 [Reference Example 30, N-(Diaminophosphiny1)-5-nitro-2-furancarboxamide] | 4.3 | Eradication Rate ([1]; 3 days for therapy): 2/5
Cc1occc1C(=O)NP(N)(N)=O [Example 40, N-(Diaminophosphinyl)-2-methyl-3-furancarboxamide] | 7.9 | Eradication Rate ([1]; 2 days for therapy): 1/5
NP(N)(=O)NC(=O)c1sccc1C(F)F [Example 19, N-(Diaminophosphinyl)-3-difluoromethyl-2-thiophenecarboxamide] | 4.6 | Eradication Rate ([1]; 2 days for therapy): 1/5
NP(N)(=O)NC(=O)c1ccsc1 [Example 2, N-(Diaminophosphinyl)-3-thiophenecarboxamide] | 16 | Eradication Rate [1, 3]: 2/5
N#Cc1ccc(C(=O)NP(N)(N)=O)s1 [Example 12, N-(Diaminophosphinyl)-5-cyano-2-thiophenecarboxamide] | 3.6 | Eradication Rate ([1]; 2 days for therapy): 1/5
NP(N)(=O)NC(=O)c1ccc(Br)cc1 [Reference Example 22, N-(Diaminophosphinyl)-4-bromobenzamide] | 9.3 | Eradication Rate [1, 3]: 1/5
Cc1csc(C(=O)NP(N)(N)=O)c1 [Example 28, N-(Diaminophosphinyl)-4-methyl-2-thiophenecarboxamide] | 1.5 | Eradication Rate ([1]; 2 days for therapy): 1/5
NP(N)(=O)NC(=O)c1ccsc1Br [Example 26, N-(Diaminophosphinyl)-2-bromo-3-thiophenecarboxamide] | 1.3 | Eradication Rate ([1]; 2 days for therapy): 2/5
Cc1ccoc1C(=O)NP(N)(N)=O [Example 92, N-(Diaminophosphinyl)-3-methyl-2-furancarboxamide] | 6 | –
NP(N)(=O)NC(=O)c1cccc(Cl)c1 [compound 27, N-(Diaminophosphinyl)-3-chlorobenzamide] | 3.9 | –
NP(N)(=O)NC(=O)CSc1ccccc1 [Example 61, N-(Diaminophosphinyl)-phenylthioacetamide] | 2.8 | –
Cc1cc(C(=O)NP(N)(N)=O)sc1Cl [Example 35, N-(Diaminophosphinyl)-5-chloro-4-methyl-2-thiophenecarboxamide] | 11 | –
NP(N)(=O)NC(=O)CSc1nc2ccccc2o1 [Example 63, N-(Diaminophosphinyl)-2-benzoxazolylthioacetamide] | 5.6 | –
CCc1ccsc1C(=O)NP(N)(N)=O [Example 27, N-(Diaminophosphinyl)-3-ethyl-2-thiophenecarboxamide] | 4.1 | –
NP(N)(=O)NC(=O)c1ccc(Cl)o1 [Example 42, N-(Diaminophosphinyl)-5-chloro-2-furancarboxamide] | 2.3 | –
NP(N)(=O)NC(=O)COc1ccccc1Cl [Example 59, N-(Diaminophosphinyl)-2-chlorophenoxyacetamide] | 5.4 | –
NP(N)(=O)NC(=O)Cc1noc2ccccc12 [Example 75, N-(Diaminophosphinyl)-3-benzisoxazolylacetamide] | 22 | –
NP(N)(=O)NC(=O)c1cscc1Br [Example 37, N-(Diaminophosphinyl)-4-bromo-3-thiophenecarboxamide] | 1.8 | –
Cc1c(Cl)sc(Cl)c1C(=O)NP(N)(N)=O [Example 88, N-(Diaminophosphinyl)-2,5-dichloro-4-methyl-3-thiophenecarboxamide] | 3.3 | –
NP(N)(=O)NC(=O)c1cc(Br)c(Br)s1 [Example 7, N-(Diaminophosphinyl)-4,5-dibromo-2-thiophenecarboxamide] | 4.3 | –
CCOc1ccc2sc(SCC(=O)NP(N)(N)=O)nc2c1 [Example 66, N-(Diaminophosphinyl)-5-ethoxy-2-benzothiazolylthioacetamide] | – | IC50 ([2]; Bis-Tris pH 6.5, room temperature, 30 min preincubation, 10 min with urea, read-out: IC50, inhibitory effect against Helicobacter pylori-derived urease): 10 nM
NP(N)(=O)NC(=O)c1ccc(C(F)F)o1 [Example 47, N-(Diaminophosphinyl)-5-difluoromethyl-2-furancarboxamide] | 1.9 | –
NP(N)(=O)NC(=O)C=Cc1nc2cc(Cl)ccc2o1 [Example 72, N-(Diaminophosphinyl)-3-(5-chloro-2-benzoxazolyl)propenamide] | 3.6 | –
NP(N)(=O)NC(=O)COc1ccc(Cl)cc1 [Example 55, N-(Diaminophosphinyl)-4-chlorophenoxyacetamide] | 3 | –

Compound | IC50 [2] [nM] | also measured
NP(N)(=O)NC(=O)COc1ccc([N+](=O)[O-])cc1 [Example 52, N-(Diaminophosphinyl)-4-nitrophenoxyacetamide] | 12 | –
N#Cc1ccc(C=CC(=O)NP(N)(N)=O)cc1 [compound 32, N-(Diaminophosphinyl)-4-cyanocinnamamide] | 14 | –
Cc1onc(-c2ccccc2)c1C(=O)NP(N)(N)=O [Example 73, N-(Diaminophosphinyl)-5-methyl-3-phenyl-4-isoxazolecarboxamide] | 55 | –
NP(N)(=O)NC(=O)c1ccc(C(F)(F)F)cc1 [compound 19, N-(Diaminophosphinyl)-4-trifluoromethylbenzamide] | 12 | –
NP(N)(=O)NC(=O)COc1cccc(F)c1 [Example 60, N-(Diaminophosphinyl)-3-fluorophenoxyacetamide] | 3.6 | –
Cc1ccc2c(Cl)c(C(=O)NP(N)(N)=O)sc2c1 [Example 71, N-(Diaminophosphinyl)-3-chloro-6-methylbenzothiophenecarboxamide] | 1.9 | –
NP(N)(=O)NC(=O)CCc1ccc(F)cc1 [Reference Example 38, N-(Diaminophosphinyl)-3-(4-fluorophenyl)propionamide] | 9.7 | –
NP(N)(=O)NC(=O)CCc1cccc(F)c1 [compound 42, N-(Diaminophosphinyl)-3-(3-fluorophenyl) propionamide] | 22 | –
Cc1sc(Cl)cc1C(=O)NP(N)(N)=O [Example 33, N-(Diaminophosphinyl)-5-chloro-2-methyl-3-thiophenecarboxamide] | 1.9 | –
NP(N)(=O)NC(=O)C=Cc1cc(Br)cs1 [Example 77, N-(Diaminophosphinyl)-3-(4-bromo-2-thienyl)propenamide] | 8.1 | –
NP(N)(=O)NC(=O)Cc1ccccc1 [Reference Example 6, N-(Diaminophosphinyl)-phenylacetamide] | 15 | –
NP(N)(=O)NC(=O)c1ccsc1C(F)F [Example 20, N-(Diaminophosphinyl)-2-difluoromethyl-3-thiophenecarboxamide] | 2.5 | –
NP(N)(=O)NC(=O)c1cccc(F)c1 [Reference Example 8, N-(Diaminophosphinyl)-3-fluorobenzamide] | 4.5 | –
Cc1cc(C)c(C(=O)NP(N)(N)=O)s1 [Example 91, N-(Diaminophosphinyl)-3,5-dimethyl-2-thiophenecarboxamide] | 6.3 | –
NP(N)(=O)NC(=O)C=Cc1ccc(Cl)cc1 [compound 31, N-(Diaminophosphinyl)-4-chlorocinnamamide] | 71 | –
NP(N)(=O)NC(=O)C=Cc1ccccc1[N+](=O)[O-] [compound 33, N-(Diaminophosphinyl)-2-nitrocinnamamide] | 8.3 | –
NP(N)(=O)NC(=O)c1ccsc1Cl [Example 38, N-(Diaminophosphinyl)-2-chloro-3-thiophenecarboxamide] | 1.7 | –
NP(N)(=O)NC(=O)c1nc2ccccc2s1 [Example 70, N-(Diaminophosphinyl)-2-benzothiazolecarboxamide] | 13 | –
NP(N)(=O)NC(=O)CCc1nc2ccccc2o1 [Example 82, N-(Diaminophosphinyl)-3-(2-benzoxazolyl)propionamide] | 27 | –
NP(N)(=O)NC(=O)c1ccccc1C(F)(F)F [compound 24, N-(Diaminophosphinyl)-2-trifluoromethylbenzamide] | 8 | –
NP(N)(=O)NC(=O)C=Cc1nc2ccccc2o1 [Example 69, N-(Diaminophosphinyl)-3-(2-benzoxazolyl)propenamide] | 9.7 | –
NP(N)(=O)NC(=O)CSc1ccc(F)cc1 [Example 62, N-(Diaminophosphinyl)-4-fluorophenylthioacetamide] | 2.8 | –
COc1ccc(C(=O)NP(N)(N)=O)s1 [Example 22, N-(Diaminophosphinyl)-5-methoxy-2-thiophenecarboxamide] | 12 | –
NP(N)(=O)NC(=O)CCc1ccccc1 [Reference Example 37, N-(Diaminophosphinyl)-3-phenylpropionamide] | 17 | –
Cc1cc(C(=O)NP(N)(N)=O)c(Cl)s1 [Example 89, N-(Diaminophosphinyl)-2-chloro-5-methyl-3-thiophenecarboxamide] | 2.6 | –
NP(N)(=O)NC(=O)Cc1ccsc1 [Example 81, N-(Diaminophosphinyl)-3-thienylacetamide] | 7.9 | –
NP(N)(=O)NC(=O)c1ccccc1F [Reference Example 16, N-(Diaminophosphinyl)-2-fluorobenzamide] | 2.7 | –
